Tests used:
[1] = system: UT-7 cells; test: UT-7 cell proliferation with SCF stimulation as a measure of wild-type KIT activity (CellTiter-Glo); format: cell-based, human; details: SCF-stimulated UT-7 cell proliferation
Text: UT-7 Cell Proliferation with SCF Stimulation Assay as a Measure of Wild-Type KIT Activity
UT-7 cells are human megakaryoblastic leukemia cell lines that can be grown in culture with dependence on granulocyte macrophage colony stimulating factor (GM-CSF) or stem cell factor (SCF). UT-7 cells respond to SCF stimulation by activation of the KIT receptor tyrosine kinase and subsequent downstream signaling that can support cell growth and proliferation (Kuriu et al, 1999; Komatsu et al, 1991; Sasaki et al, 1995). Test compounds were assayed for their ability to inhibit SCF-stimulated proliferation of UT-7 cells.
Inhibition of SCF-stimulated UT-7 cell proliferation was assessed using the CellTiter-Glo assay that quantifies the amount of adenosine triphosphate (ATP) present, which is a readout of metabolically active cells and is directly proportional to the number of viable cells in culture. The ability of test compounds to inhibit SCF-stimulated UT-7 cell proliferation was determined using a 10-point dose curve ranging from 25 μM to 95.4 pM of test compound.
UT-7 cells were maintained in IMDM supplemented with 10% FBS, 5 ng/mL GM-CSF and 100 units/mL Penicillin-Streptomycin and grown in a 37° C. humidified tissue culture incubator. UT-7 cells were washed once with serum free, GM-CSF free IMDM. Cells were then resuspended in IMDM containing 4% FBS and 50 ng/mL SCF and seeded at 2500 cells per well in a volume of 22 μL in a 384-well microplate. A 10-point dose concentration series of test compounds (25.0 μM to 95.4 pM) were then added to the cells in a volume of 3.1 μL to each well (0.25% DMSO final concentration) and placed in a tissue culture incubator (5% CO2, 37° C.) for 72 hours. After 3-days with test compound, CellTiter-Glo reagent was prepared fresh and 25 μL of reagent was added to each well. The plate was mixed by shaking for 10 minutes at RT at 300 rpm on a plate shaker. The plate was read on an EnVision plate reader using the Ultra Sensitive Luminescence protocol for a 384-well plate.

[2] = molecular target: PDGFRα D842V (Homo sapiens (Human), UniProt P16234, D842V); test: PDGFRα D842V biochemical enzymatic activity assay (EZReader 2 mobility shift); details: at APPKM for ATP, 25 μM ATP, 90 minutes
Chain of PDGFRα D842V (P16234 24-1089 D842V): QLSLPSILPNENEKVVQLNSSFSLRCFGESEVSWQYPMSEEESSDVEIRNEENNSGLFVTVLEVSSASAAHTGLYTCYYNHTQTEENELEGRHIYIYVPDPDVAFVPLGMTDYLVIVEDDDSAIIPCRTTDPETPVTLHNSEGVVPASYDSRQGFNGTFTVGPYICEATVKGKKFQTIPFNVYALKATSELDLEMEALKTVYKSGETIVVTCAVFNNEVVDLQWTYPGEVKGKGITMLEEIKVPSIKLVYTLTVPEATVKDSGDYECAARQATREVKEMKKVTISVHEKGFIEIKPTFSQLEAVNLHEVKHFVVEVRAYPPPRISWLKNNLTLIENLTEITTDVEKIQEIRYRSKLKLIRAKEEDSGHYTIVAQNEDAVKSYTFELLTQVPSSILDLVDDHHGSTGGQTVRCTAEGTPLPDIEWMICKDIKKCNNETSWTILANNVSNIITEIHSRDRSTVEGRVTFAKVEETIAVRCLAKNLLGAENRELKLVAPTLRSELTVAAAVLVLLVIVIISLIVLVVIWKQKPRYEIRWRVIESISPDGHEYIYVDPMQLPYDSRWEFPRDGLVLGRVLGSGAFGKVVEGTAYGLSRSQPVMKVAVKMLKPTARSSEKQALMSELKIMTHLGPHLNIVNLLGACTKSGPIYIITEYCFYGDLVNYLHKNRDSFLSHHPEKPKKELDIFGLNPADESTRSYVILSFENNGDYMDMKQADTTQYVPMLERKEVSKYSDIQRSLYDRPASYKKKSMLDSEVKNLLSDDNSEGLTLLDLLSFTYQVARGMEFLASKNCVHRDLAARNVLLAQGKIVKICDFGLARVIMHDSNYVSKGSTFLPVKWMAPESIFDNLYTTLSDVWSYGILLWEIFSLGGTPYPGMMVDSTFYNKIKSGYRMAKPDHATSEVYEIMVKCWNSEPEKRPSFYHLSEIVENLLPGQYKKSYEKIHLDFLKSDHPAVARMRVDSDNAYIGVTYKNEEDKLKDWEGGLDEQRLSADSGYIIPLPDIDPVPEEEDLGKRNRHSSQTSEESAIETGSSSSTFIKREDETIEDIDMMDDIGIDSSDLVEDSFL
Text: (§1) PDGFRα and KIT enzymatic activity was monitored using the Perkin Elmer electrophoretic mobility shift technology platform, the EZReader 2.
(§2) Within the linear, steady-state phase of the kinase enzymatic reaction, the mixed pool of phosphorylated (product) and non-phosphorylated (substrate) peptides was passed through the microfluidic system of the PerkinElmer EZ Reader 2, under an applied electric potential difference. The presence of the phosphate group on the product peptide provided a difference in mass and charge between that of the substrate peptide, resulting in a separation of the substrate and product pools in the sample (Perrin et al., Expert Opin Drug Discovery 2010 Jan. 5(1):51-63).
(§3) As the product and substrate peptide mixture passes the lasers within the instrument, these pools are detected (λex=488 nm, λem=568 nm) and resolved as separate peaks. The ratio between these peaks reflects the activity of the compound at that concentration, in that well, under those conditions.
Inhibition of KIT (D816V) PDGFRα (D842V) Mutant Biochemical Enzymatic Activity
(§4) All test articles were dissolved in 100% DMSO at a stock concentration of 10 mM. A 100×, 10-point, 4-fold serial dilution of all test compounds was created in 100% DMSO, starting at a relevant concentration, usually 1 mM. A volume of 0.130 μL of each concentration was transferred to the relevant well of a 384-well assay plate (Greiner 781 201) using a TTPLabtech Mosquito nano-liter dispenser. Using the Multidrop, the remaining constituents of the reaction were then added to the 0.130 μL of compound as follows:
The reaction was stopped by the addition of 70 μl of Stop buffer (100 mM HEPES pH 7.5, 0.015% Brij 35, 35 mM EDTA and 0.2% of Coating Reagent 3, Caliper Lifesciences). The plate was read on a Caliper EZReader 2.

[3] = molecular target: KIT D816V (Homo sapiens (Human), UniProt P10721, D816V/V560G); test: HMC1.2 autophosphorylation assay (phospho-Y719 KIT AlphaLISA); format: cell-based; details: HMC1.2 cell line, KIT autophosphorylation at tyrosine 719, 90 minutes; read-out: KIT (P-KIT HMC1.2 (nM))
Chain of KIT D816V (Homo sapiens (Human), UniProt P10721, D816V/V560G) (P10721 26-976 V560G/D816V): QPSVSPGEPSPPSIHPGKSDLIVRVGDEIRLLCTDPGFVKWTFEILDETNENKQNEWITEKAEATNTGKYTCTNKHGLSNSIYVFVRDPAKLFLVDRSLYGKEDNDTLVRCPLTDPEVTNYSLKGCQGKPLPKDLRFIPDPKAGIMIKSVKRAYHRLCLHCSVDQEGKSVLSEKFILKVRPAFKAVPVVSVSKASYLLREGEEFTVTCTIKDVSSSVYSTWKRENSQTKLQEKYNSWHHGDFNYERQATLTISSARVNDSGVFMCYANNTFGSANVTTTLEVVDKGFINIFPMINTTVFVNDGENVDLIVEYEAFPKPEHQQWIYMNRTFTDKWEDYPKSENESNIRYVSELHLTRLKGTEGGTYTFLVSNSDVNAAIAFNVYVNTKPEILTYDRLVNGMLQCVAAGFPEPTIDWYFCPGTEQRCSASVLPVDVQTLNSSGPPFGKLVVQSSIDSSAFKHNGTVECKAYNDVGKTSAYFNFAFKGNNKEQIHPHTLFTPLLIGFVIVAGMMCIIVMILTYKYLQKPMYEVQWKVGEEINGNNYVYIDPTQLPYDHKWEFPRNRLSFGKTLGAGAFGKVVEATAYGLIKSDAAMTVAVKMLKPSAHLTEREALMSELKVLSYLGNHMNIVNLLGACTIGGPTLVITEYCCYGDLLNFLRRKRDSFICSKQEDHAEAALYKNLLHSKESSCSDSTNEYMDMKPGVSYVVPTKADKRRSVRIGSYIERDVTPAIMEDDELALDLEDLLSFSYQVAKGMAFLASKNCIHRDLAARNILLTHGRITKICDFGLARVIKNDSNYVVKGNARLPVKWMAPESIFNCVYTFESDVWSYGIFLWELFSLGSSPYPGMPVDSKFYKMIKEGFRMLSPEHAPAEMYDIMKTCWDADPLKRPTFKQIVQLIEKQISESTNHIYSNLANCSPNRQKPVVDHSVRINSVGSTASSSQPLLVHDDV
Description: 10,000 HMC1.2 cells were incubated in 22 μL culture media (phenol-red free IMDM, no serum) in each well of a 384-well plate and serum starved overnight in a tissue culture incubator (5% CO2, 37° C.). […] 10 μL of 100 μg/mL streptavidin donor beads (Perkin Elmer) were added to each well, blocked from light with solid black adhesive and shaken at 300 rpm at room temperature for 2 hours. Fluorescence signal was obtained on Envision (Perkin Elmer) by AlphaScreen 384 well HTS protocol.

[4] = molecular target: KIT D816V (Homo sapiens (Human), UniProt P10721, D816V); test: KIT D816V biochemical enzymatic activity assay (EZReader 2 mobility shift); details: at APPKM for ATP, 20 μM ATP, 60 minutes
Chain of KIT D816V (Homo sapiens (Human), UniProt P10721, D816V) (P10721 26-976 D816V): as the sequence (P10721 26-976 V560G/D816V) above, with G535V counted along it
Text: as §1, §2, §3, §4
The plate was read on a Caliper EZReader 2.

[5] = molecular target: wt KIT kinase (Homo sapiens (Human), UniProt P10721); test: Wild-type KIT binding assay (Kd determination, phage-tagged kinase, qPCR)
Chain of wt KIT kinase (P10721 26-976): as the sequence (P10721 26-976 V560G/D816V) above, with G535V, V791D counted along it
Description: Kd Determinations. For most assays, including wt KIT kinase, kinase-tagged T7 phage strains were prepared in an E. coli host derived from the BL21 strain. E. coli were grown to log-phase and infected with T7 phage and incubated with shaking at 32° C. until lysis. […] The liganded beads were blocked with excess biotin and washed with blocking buffer (SeaBlock (Pierce), 1% BSA, 0.05% Tween 20, 1 mM DTT) to remove unbound ligand and to reduce non-specific binding. […] Test compounds were prepared as 111× stocks in 100% DMSO. Kds were determined using an 11-point 3-fold compound dilution series with three DMSO control points. […] The compounds were then diluted directly into the assays such that the final concentration of DMSO was 0.9%. All reactions were performed in polypropylene 384-well plate. Each was a final volume of 0.02 ml. […] The kinase concentration in the eluates was measured by qPCR.
Binding Constants (Kds). Binding constants (Kds) were calculated with a standard dose-response curve using the Hill equation: Response=Background+Signal−Background 1+(KdHill Slope/DoseHill Slope). The Hill Slope was set to −1. Curves were fitted using a non-linear least square fit with the Levenberg-Marquardt algorithm.

Row | Compound | IC50 [2] | IC50 [3] | IC50 [4] | Kd [5] | IC50 ([1]; Homo sapiens, UT7, 72 h) | IC50 ([1]; 72 hours)
1 | C[C@](N)(c1ccc(F)cc1)c1cnc(N2CCN(c3ncnn4cc(-c5cnn(C6(CO)CC6)c5)cc34)CC2)nc1 [Compound 13, (S)-(1-(4-(4-(4-(5-(1-Amino-1-(4-fluorophenyl)ethyl)pyrimidin-2-yl)piperazin-1-yl)pyrrolo[2,1-f][1,2,4]triazin-6-yl)-1H-pyrazol-1-yl)cyclopropyl)methanol] | ≤ 0.3 nM |  |  |  | 90.1 to 150 nM | 
2 | CC(C)(O)Cn1cc(-c2cc3c(N4CCN(c5ncc([C@@](C)(N)c6ccc(F)cc6)cn5)CC4)ncnn3c2)cn1 [Compound 1, (S)-1-(4-(4-(4-(5-(1-Amino-1-(4-fluorophenyl)ethyl)pyrimidin-2-yl)piperazin-1-yl)pyrrolo[2,1-f][1,2,4]triazin-6-yl)-1H-pyrazol-1-yl)-2-methylpropan-2-ol] |  |  |  |  | 150 to 200 nM | 
3 | C[C@@H](O)Cn1cc(-c2cc3c(N4CCN(c5ncc([C@@](C)(N)c6ccc(F)cc6)cn5)CC4)ncnn3c2)cn1 [Compound 3, (R)1-{4-[4-(4-{5-[(S)-1-Amino-1-(4-fluoro-phenyl)-ethyl]-pyrimidin-2-yl}-piperazin-1-yl)-pyrrolo[2,1-f][1,2,4]triazin-6-yl]-pyrazol-1-yl}-propan-2-ol] |  |  |  |  | < 90 nM | 
4 | C[C@@H](CO)n1cc(-c2cc3c(N4CCN(c5ncc([C@@](C)(N)c6ccc(F)cc6)cn5)CC4)ncnn3c2)cn1 [Compound 6, (S)-2-(4-(4-(4-(5-((S)-1-amino-1-(4-fluorophenyl)ethyl)pyrimidin-2-yl)piperazin-1-yl)pyrrolo[2,1-f][1,2,4]triazin-6-yl)-1H-pyrazol-1-yl)propan-1-ol] |  |  |  |  | < 90 nM | 
5 | CC(C)(CO)n1cc(-c2cc3c(N4CCN(c5ncc([C@@](C)(N)c6ccc(F)cc6)cn5)CC4)ncnn3c2)cn1 [Compound 2, (S)-2-(4-(4-(4-(5-(1-amino-1-(4-fluorophenyl)ethyl)pyrimidin-2-yl)piperazin-1-yl)pyrrolo[2,1-f][1,2,4]triazin-6-yl)-1H-pyrazol-1-yl)-2-methylpropan-1-ol] |  |  |  |  | 150 to 200 nM | 
6 | C[C@H](CO)n1cc(-c2cc3c(N4CCN(c5ncc([C@@](C)(N)c6ccc(F)cc6)cn5)CC4)ncnn3c2)cn1 [Compound 5, (R)-2-(4-(4-(4-(5-((S)-1-Amino-1-(4-fluorophenyl)ethyl)pyrimidin-2-yl)piperazin-1-yl)pyrrolo[2,1-f][1,2,4]triazin-6-yl)-1H-pyrazol-1-yl)propan-1-ol] |  |  |  |  | < 90 nM | 

Further lines, with some results ahead:

Row | IC50 [2] | IC50 [3] | IC50 [4] | Kd [5] | Compound | IC50 ([1]; Homo sapiens, UT7, 72 h) | IC50 ([1]; 72 hours)
7 | ≤ 0.3 nM |  |  |  | C[C@](N)(c1ccc(F)cc1)c1cnc(N2CCN(c3ncnn4cc(-c5cnn(C6COC6)c5)cc34)CC2)nc1 [Compound 7, (S)-1-(4-Fluorophenyl)-1-(2-(4-(6-(1-(oxetan-3-yl)-1H-pyrazol-4-yl)pyrrolo[2,1-f][1,2,4]triazin-4-yl)piperazin-1-yl)pyrimidin-5-yl)ethan-1-amine] | 90.1 to 150 nM | 
8 | ≤ 0.3 nM | < 4.5 nM | ≤ 0.3 nM | < 10 nM | C[C@](N)(c1ccc(F)cc1)c1cnc(N2CCN(c3ncnn4cc(-c5cnn([C@@H]6CC[C@H]6O)c5)cc34)CC2)nc1 (single isomer, unassigned) [Compound 22] | 90.1 to 150 nM | 
9 | ≤ 0.3 nM | < 4.5 nM | ≤ 0.3 nM | < 10 nM | C[C@](N)(c1ccc(F)cc1)c1cnc(N2CCN(c3ncnn4cc(-c5cnn([C@H]6COC[C@H]6O)c5)cc34)CC2)nc1 (single isomer, unassigned) [Compound 20] | 90.1 to 150 nM | 
10 | ≤ 0.3 nM |  |  |  | C[C@H](O)Cn1cc(-c2cc3c(N4CCN(c5ncc([C@@](C)(N)c6ccc(F)cc6)cn5)CC4)ncnn3c2)cn1 [Compound 9] | 90.1 to 150 nM | 
11 | ≤ 0.3 nM | 4.6 to 10 nM | ≤ 0.3 nM | < 10 nM | C[C@](N)(c1ccc(F)cc1)c1cnc(N2CCN(c3ncnn4cc(-c5cnn([C@H]6C[C@H](O)C6)c5)cc34)CC2)nc1 [Compound 11, trans-3-{4-[4-(4-{5-[1-Amino-1-(4-fluoro-phenyl)-ethyl]-pyrimidin-2-yl}-piperazin-1-yl)-pyrrolo[2,1-f][1,2,4]triazin-6-yl]-pyrazol-1-yl}-cyclobutanol] |  | 90.1 to 150 nM
12 | ≤ 0.3 nM | < 4.5 nM | ≤ 0.3 nM | < 10 nM | C[C@](N)(c1ccc(F)cc1)c1cnc(N2CCN(c3ncnn4cc(-c5cnn([C@H]6COC[C@@H]6O)c5)cc34)CC2)nc1 (single isomer, unassigned) [Compound 18] | 90.1 to 150 nM | 
13 | ≤ 0.3 nM | 4.6 to 10 nM | 0.31 to 1 nM | < 10 nM | C[C@](N)(c1ccc(F)cc1)c1cnc(N2CCN(c3ncnn4cc(-c5cnn([C@@H]6COC[C@@H]6O)c5)cc34)CC2)nc1 (single isomer, unassigned) [Compound 17] | 90.1 to 150 nM | 
14 | ≤ 0.3 nM |  |  |  | C[C@](N)(c1ccc(F)cc1)c1cnc(N2CCN(c3ncnn4cc(-c5cnn(CC6(O)CC6)c5)cc34)CC2)nc1 [Compound 12, (S)-1-((4-(4-(4-(5-(1-Amino-1-(4-fluorophenyl)ethyl)pyrimidin-2-yl)piperazin-1-yl)pyrrolo[2,1-f][1,2,4]triazin-6-yl)-1H-pyrazol-1-yl)methyl)cyclopropan-1-ol] | 90.1 to 150 nM | 
